The values that follow come from patent US10106762B2, “Treating a textile garment with a hydrophobic dye solution” (Henkel IP & Holding GmbH, priority 2004, dated 2018).

A short description of one data set: LogP of dye. Format: physicochemical.
Data set [1] in a line: Optical density of dye solution. It is filed as physicochemical. The settings on record: 200 ppb solution in water at 10 cm; extrapolated from measurement in ethanol solutions at higher levels.

`CN=C1C=CC(=C(c2ccc(N(C)C)cc2)c2ccc(N(C)C)cc2)C=C1` [Solvent Violet 8, Solvent Violet 8 (Methyl Violet B Base)] returned a log partition coefficient (logP) in “LogP of dye” of 4.5. Further, the “OD 10 cm” value in data set [1] is 0.26.

Regarding `CCN(CC)c1ccc(/N=N/c2c(C#N)cc([N+](=O)[O-])cc2C#N)c(NC(C)=O)c1` [Disperse Blue 165], the logP in the data set “LogP of dye” worked out at 3.5. The “OD 10 cm” value in data set [1] is 0.014.

Molecule `CC1(C)Nc2cccc3c(/N=N/c4ccc(/N=N/c5ccccc5)c5ccccc45)ccc(c23)N1` [solvent black 3] showed a logP in the data set “LogP of dye” of 8.5. Further, the “OD 10 cm” value in data set [1] was 0.11.

Turning to Solvent blue 43, in data set [1], the “OD 10 cm” value is 0.33.

On to `COc1cc(/N=N/c2c(Br)cc([N+](=O)[O-])cc2[N+](=O)[O-])c(NC(C)=O)cc1N(CCOC(C)=O)CCOC(C)=O` [Disperse Blue 79:1], for which the lipophilicity (logP) in “LogP of dye” turned out to be 4.5. In data set [1], the “OD 10 cm” value was 0.048.

Turning to `CCN(CCO)c1ccc(/N=N/c2ccc([N+](=O)[O-])cc2)cc1` [disperse red 1], the logP in the data set “LogP of dye” amounted to 4. In addition, the “OD 10 cm” value in data set [1] is given as 0.023.

Regarding Disperse Blue 367, the “OD 10 cm” value in data set [1] was 0.0067.
